{"source": "patent US10100058B2", "about": "“Fused heterocyclic compounds as CaM kinase inhibitors” (Gilead Sciences, Inc., priority 2016, dated 2018)", "data": [{"molecular_target": "recombinant CaMKIIδ (Homo sapiens (Human), UniProt Q13557)", "experiment": "CaMKIIδ biochemical assay (HTRF)", "conditions": "10 pM CaMKIIδ, 110 nM calmodulin, 12 μM ATP, 1 hour; read-out: CAMKIID-HTRF-384V2 (IC50 - nM)", "method": "CaMKIIδ Biochemical Assay\nThe biochemical activity of recombinant CaMKIIδ was measured by monitoring the phosphorylation of a target peptide using Homogenous Time Resolved Fluorescence (HTRF) technology from CisBio Bioassays.", "units": {"IC50": "nM"}, "values": [{"smiles": "CCN(CC)[C@@H](C)CNC(=O)c1cc(-c2cnn3ccc(-c4cccs4)nc23)nc(N2CC(O)(CC)C2)c1", "note": "[Example 214, (S)—N-(2-(diethylamino)propyl)-2-(3-ethyl-3-hydroxyazetidin-1-yl)-6-(5-(thiophen-2-yl)pyrazolo[1,5-a]pyrimidin-3-yl)isonicotinamide]", "IC50": 0.18}, {"smiles": "CCN(CC)[C@@H](C)CNC(=O)c1cc(-c2cnn3ccc(-c4cccs4)nc23)nc(N2CC(C(C)(C)O)C2)c1", "note": "[Example 215, (S)—N-(2-(diethylamino)propyl)-2-(3-(2-hydroxypropan-2-yl)azetidin-1-yl)-6-(5-(thiophen-2-yl)pyrazolo[1,5-a]pyrimidin-3-yl)isonicotinamide]", "IC50": 0.22}, {"smiles": "CCN(CC)[C@@H](C)CNC(=O)c1cc(-c2cnn3ccc(-c4cccs4)nc23)nc(N2CC(CO)C2)c1", "note": "[Example 216, (S)—N-(2-(diethylamino)propyl)-2-(3-(hydroxymethyl)azetidin-1-yl)-6-(5-(thiophen-2-yl)pyrazolo[1,5-a]pyrimidin-3-yl)isonicotinamide]", "IC50": 0.1}, {"smiles": "CCN(CC)[C@@H](C)CNC(=O)c1cc(-c2cnn3ccc(-c4cccs4)nc23)nc(N2CC(O)(C3CC3)C2)c1", "note": "[Example 217, (S)-2-(3-cyclopropyl-3-hydroxyazetidin-1-yl)-N-(2-(diethylamino)propyl)-6-(5-(thiophen-2-yl)pyrazolo[1,5-a]pyrimidin-3-yl)isonicotinamide]", "IC50": 0.18}, {"smiles": "CCN(CC)[C@@H](C)CNC(=O)c1cc(NCCCOC)nc(-c2cnn3ccc(-c4cccs4)nc23)c1", "note": "[Example 218, (S)—N-(2-(diethylamino)propyl)-2-((3-methoxypropyl)amino)-6-(5-(thiophen-2-yl)pyrazolo[1,5-a]pyrimidin-3-yl)isonicotinamide]", "IC50": 0.17}, {"smiles": "CCN(CC)[C@@H](C)CNC(=O)c1cc(-c2cnn3ccc(-c4cccs4)nc23)nc(N2CC(O)(C(F)(F)F)C2)c1", "note": "[Example 219, (S)—N-(2-(diethylamino)propyl)-2-(3-hydroxy-3-(trifluoromethyl)azetidin-1-yl)-6-(5-(thiophen-2 yl)pyrazolo[1,5-a]pyrimidin-3-yl)isonicotinamide]", "IC50": 0.21}, {"smiles": "CCN(CC)[C@@H](C)CNC(=O)c1cc(NCCCO)nc(-c2cnn3ccc(-c4cccs4)nc23)c1", "note": "[Example 220, (S)—N-(2-(diethylamino)propyl)-2-((3-hydroxypropyl)amino)-6-(5-(thiophen-2-yl)pyrazolo[1,5-a]pyrimidin-3-yl)isonicotinamide]", "IC50": 0.11}, {"smiles": "CCN(CC)[C@@H](C)CNC(=O)c1cc(NCCC(C)(C)O)nc(-c2cnn3ccc(-c4cccs4)nc23)c1", "note": "[Example 221, (S)—N-(2-(diethylamino)propyl)-2-((3-hydroxy-3-methylbutyl)amino)-6-(5-(thiophen-2-yl)pyrazolo[1,5-a]pyrimidin-3-yl)isonicotinamide]", "IC50": 0.13}, {"smiles": "CCN(CC)[C@@H](C)CNC(=O)c1cc(NC2CCOCC2)nc(-c2cnn3ccc(-c4cccs4)nc23)c1", "note": "[Example 222, (S)—N-(2-(diethylamino)propyl)-2-((tetrahydro-2H-pyran-4-yl)amino)-6-(5-(thiophen-2-yl)pyrazolo[1,5-a]pyrimidin-3-yl)isonicotinamide]", "IC50": 0.17}, {"smiles": "CCN(CC)[C@@H](C)CNC(=O)c1cc(NCCN2CCOCC2)nc(-c2cnn3ccc(-c4cccs4)nc23)c1", "note": "[Example 223, (S)—N-(2-(diethylamino)propyl)-2-((2-morpholinoethyl)amino)-6-(5-(thiophen-2-yl)pyrazolo[1,5-a]pyrimidin-3-yl)isonicotinamide]", "IC50": 0.14}, {"smiles": "CCN(CC)[C@@H](C)CNC(=O)c1cc(NCCN2CC(F)(F)C2)nc(-c2cnn3ccc(-c4cccs4)nc23)c1", "note": "[Example 224, (S)—N-(2-(diethylamino)propyl)-2-((2-(3,3-difluoroazetidin-1-yl)ethyl)amino)-6-(5-(thiophen-2-yl)pyrazolo[1,5-a]pyrimidin-3-yl)isonicotinamide]", "IC50": 0.21}, {"smiles": "CCN(CC)[C@@H](C)CNC(=O)c1cc(-c2cnn3ccc(-c4cccs4)nc23)nc(N2CC(C)(O)C2)c1", "note": "[Example 226, (S)—N-(2-(diethylamino)propyl)-2-(3-hydroxy-3-methylazetidin-1-yl)-6-(5-(thiophen-2-yl)pyrazolo[1,5-a]pyrimidin-3-yl)isonicotinamide]", "IC50": 0.1}, {"smiles": "CCN(CC)[C@@H](C)CNC(=O)c1cc(-c2cnn3ccc(-c4cccs4)nc23)nc(N2CC(C)(OC)C2)c1", "note": "[Example 227, (S)—N-(2-(diethylamino)propyl)-2-(3-methoxy-3-methylazetidin-1-yl)-6-(5-(thiophen-2-yl)pyrazolo[1,5-a]pyrimidin-3-yl)isonicotinamide]", "IC50": 0.07}, {"smiles": "CCN(CC)[C@@H](C)CNC(=O)c1cc(-c2cnn3ccc(-c4cccs4)nc23)nc(N2CC(F)(F)C(F)(F)C2)c1", "note": "[Example 230, (S)—N-(2-(diethylamino)propyl)-2-(3,3,4,4-tetrafluoropyrrolidin-1-yl)-6-(5-(thiophen-2-yl)pyrazolo[1,5-a]pyrimidin-3-yl)isonicotinamide]", "IC50": 1.8}, {"smiles": "CCN(CC)[C@@H](C)CNC(=O)c1cc(Nc2cn[nH]c2)nc(-c2cnn3ccc(-c4cccs4)nc23)c1", "note": "[Example 231, (S)-2-((1H-pyrazol-4-yl)amino)-N-(2-(diethylamino)propyl)-6-(5-(thiophen-2-yl)pyrazolo[1,5-a]pyrimidin-3-yl)isonicotinamide]", "IC50": 0.06}, {"smiles": "CCN(CC)[C@@H](C)CNC(=O)c1cc(-c2cnn3ccc(-c4cccs4)nc23)nc(N2CCC(F)(F)C2)c1", "note": "[Example 232, (S)—N-(2-(diethylamino)propyl)-2-(3,3-difluoropyrrolidin-1-yl)-6-(5-(thiophen-2-yl)pyrazolo[1,5-a]pyrimidin-3-yl)isonicotinamide]", "IC50": 0.28}, {"smiles": "CCN(CC)[C@@H](C)CNC(=O)c1cc(-c2cnn3ccc(-c4cccs4)nc23)nc(N2CCC3(COC3)C2)c1", "note": "[Example 233, (S)—N-(2-(diethylamino)propyl)-2-(2-oxa-6-azaspiro[3.4]octan-6-yl)-6-(5-(thiophen-2-yl)pyrazolo[1,5-a]pyrimidin-3-yl)isonicotinamide]", "IC50": 0.18}, {"smiles": "CCN(CC)[C@@H](C)CNC(=O)c1cc(-c2cnn3ccc(-c4cccs4)nc23)nc(N2CCC23COC3)c1", "note": "[Example 234, (S)—N-(2-(diethylamino)propyl)-2-(6-oxa-1-azaspiro[3.3]heptan-1-yl)-6-(5-(thiophen-2-yl)pyrazolo[1,5-a]pyrimidin-3-yl)isonicotinamide]", "IC50": 1.28}, {"smiles": "CCN(CC)[C@@H](C)CNC(=O)c1cc(N[C@H](C)C(N)=O)nc(-c2cnn3ccc(-c4cccs4)nc23)c1", "note": "[Example 235, 2-(((R)-1-amino-1-oxopropan-2-yl)amino)-N—((S)-2-(diethylamino)propyl)-6-(5-(thiophen-2-yl)pyrazolo[1,5-a]pyrimidin-3-yl)isonicotinamide]", "IC50": 1.83}, {"smiles": "CCN(CC)[C@@H](C)CNC(=O)c1cc(N[C@@H](C)C(N)=O)nc(-c2cnn3ccc(-c4cccs4)nc23)c1", "note": "[Example 236, 2-(((S)-1-amino-1-oxopropan-2-yl)amino)-N—((S)-2-(diethylamino)propyl)-6-(5-(thiophen-2-yl)pyrazolo[1,5-a]pyrimidin-3-yl)isonicotinamide]", "IC50": 0.83}, {"smiles": "CCN(CC)[C@@H](C)CNC(=O)c1cc(NCc2ncc[nH]2)nc(-c2cnn3ccc(-c4cccs4)nc23)c1", "note": "[Example 237, (S)-2-(((1H-imidazol-2-yl)methyl)amino)-N-(2-(diethylamino)propyl)-6-(5-(thiophen-2-yl)pyrazolo[1,5-a]pyrimidin-3-yl)isonicotinamide]", "IC50": 0.13}, {"smiles": "CCN(CC)[C@@H](C)CNC(=O)c1cc(NCC(N)=O)nc(-c2cnn3ccc(-c4cccs4)nc23)c1", "note": "[Example 238, (S)-2-((2-amino-2-oxoethyl)amino)-N-(2-(diethylamino)propyl)-6-(5-(thiophen-2-yl)pyrazolo[1,5-a]pyrimidin-3-yl)isonicotinamide]", "IC50": 0.28}, {"smiles": "CCN(CC)[C@@H](C)CNC(=O)c1cc(N[C@H](C)C(=O)NC)nc(-c2cnn3ccc(-c4cccs4)nc23)c1", "note": "[Example 239, N—((S)-2-(diethylamino)propyl)-2-(((R)-1-(methylamino)-1-oxopropan-2-yl)amino)-6-(5-(thiophen-2-yl)pyrazolo[1,5-a]pyrimidin-3-yl)isonicotinamide]", "IC50": 3.66}, {"smiles": "CCN(CC)[C@@H](C)CNC(=O)c1cc(N[C@@H](C)C(=O)NC)nc(-c2cnn3ccc(-c4cccs4)nc23)c1", "note": "[Example 240, N—((S)-2-(diethylamino)propyl)-2-(((S)-1-(methylamino)-1-oxopropan-2-yl)amino)-6-(5-(thiophen-2-yl)pyrazolo[1,5-a]pyrimidin-3-yl)isonicotinamide]", "IC50": 1.07}, {"smiles": "CCN(CC)[C@@H](C)CNC(=O)c1cc(Nc2ncc[nH]2)nc(-c2cnn3ccc(-c4cccs4)nc23)c1", "note": "[Example 241, (S)-2-((1H-imidazol-2-yl)amino)-N-(2-(diethylamino)propyl)-6-(5-(thiophen-2-yl)pyrazolo[1,5-a]pyrimidin-3-yl)isonicotinamide]", "IC50": 1.87}, {"smiles": "CCN(CC)[C@@H](C)CNC(=O)c1cc(NCCS(N)(=O)=O)nc(-c2cnn3ccc(-c4cccs4)nc23)c1", "note": "[Example 242, (S)—N-(2-(diethylamino)propyl)-2-((2-sulfamoylethyl)amino)-6-(5-(thiophen-2-yl)pyrazolo[1,5-a]pyrimidin-3-yl)isonicotinamide]", "IC50": 0.07}, {"smiles": "CCN(CC)[C@@H](C)CNC(=O)c1cc(-c2cnn3ccc(-c4cccs4)nc23)nc(N2C[C@H](O)[C@@H](O)C2)c1", "note": "[Example 243, N—((S)-2-(diethylamino)propyl)-2-((3S,4S)-3,4-dihydroxypyrrolidin-1-yl)-6-(5-(thiophen-2-yl)pyrazolo[1,5-a]pyrimidin-3-yl)isonicotinamide]", "IC50": 0.14}, {"smiles": "CCN(CC)[C@@H](C)CNC(=O)c1cc(-c2cnn3ccc(-c4cccs4)nc23)nc(N2CC(CO)(CO)C2)c1", "note": "[Example 244, (S)-2-(3,3-bis(hydroxymethyl)azetidin-1-yl)-N-(2-(diethylamino)propyl)-6-(5-(thiophen-2-yl)pyrazolo[1,5-a]pyrimidin-3-yl)isonicotinamide]", "IC50": 0.16}]}]}
